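Grown in 96-well plates, cells were treated for 48 hours with each compound at five concentrations. Insufficient inhibition: endpoint recorded as highest concentration tested. The concentration for full growth arrest is given as TGI.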
What was measured:
Experiment in all cases: NCI tumour cell line growth inhibition, 48 h
UACC-257 melanoma = tested on: UACC-257 melanoma
NCI/ADR-RES ovarian = tested on: NCI/ADR-RES ovarian
SNB-19 CNS = tested on: SNB-19 CNS
K-562 leukemia = tested on: K-562 leukemia
NCI-H460 lung = tested on: NCI-H460 lung
HCT-15 colon = tested on: HCT-15 colon
A549 NSCLC = tested on: A549 NSCLC
SF-268 CNS = tested on: SF-268 CNS
UACC-62 melanoma = tested on: UACC-62 melanoma
KM12 colon = tested on: KM12 colon
HOP-62 NSCLC = tested on: HOP-62 NSCLC
ACHN renal = tested on: ACHN renal
SW-620 colon = tested on: SW-620 colon
MDA-MB-435 = tested on: MDA-MB-435
BT-549 breast = tested on: BT-549 breast
COLO 205 colon = tested on: COLO 205 colon
MCF7 breast = tested on: MCF7 breast
NCI-H522 lung = tested on: NCI-H522 lung
RPMI-8226 leukemia = tested on: RPMI-8226 leukemia
RXF 393 renal = tested on: RXF 393 renal
CAKI-1 renal = tested on: CAKI-1 renal
HOP-92 NSCLC = tested on: HOP-92 NSCLC
SK-MEL-28 melanoma = tested on: SK-MEL-28 melanoma
MOLT-4 leukemia = tested on: MOLT-4 leukemia
UO-31 renal = tested on: UO-31 renal
SK-OV-3 ovarian = tested on: SK-OV-3 ovarian
SF-295 CNS = tested on: SF-295 CNS
M14 melanoma = tested on: M14 melanoma
HS 578T breast = tested on: HS 578T breast
EKVX NSCLC = tested on: EKVX NSCLC
SNB-75 CNS = tested on: SNB-75 CNS
PC-3 prostate = tested on: PC-3 prostate
HCC-2998 colon = tested on: HCC-2998 colon
OVCAR-3 ovarian = tested on: OVCAR-3 ovarian
HT29 colon = tested on: HT29 colon
TK-10 renal = tested on: TK-10 renal
SK-MEL-2 melanoma = tested on: SK-MEL-2 melanoma
MALME-3M melanoma = tested on: MALME-3M melanoma
OVCAR-5 ovarian = tested on: OVCAR-5 ovarian
OVCAR-8 ovarian = tested on: OVCAR-8 ovarian
CCRF-CEM leukemia = tested on: CCRF-CEM leukemia
HL-60(TB) leukemia = tested on: HL-60(TB) leukemia
IGROV1 ovarian = tested on: IGROV1 ovarian
786-0 renal = tested on: 786-0 renal
U251 CNS = tested on: U251 CNS
SF-539 CNS = tested on: SF-539 CNS
SR leukemia = tested on: SR leukemia
MDA-MB-231 breast = tested on: MDA-MB-231 breast
OVCAR-4 ovarian = tested on: OVCAR-4 ovarian
HCT-116 colon = tested on: HCT-116 colon
SK-MEL-5 melanoma = tested on: SK-MEL-5 melanoma
NCI-H226 lung = tested on: NCI-H226 lung

Measured: TGI

Cc1cc(NS(=O)(=O)c2ccc(N=Nc3c(O)c(C(=O)O)cc4ccccc34)cc2)nc(C)n1
> 100 µM: all assays above
